# Experimental data reported in PubChem BioAssay (NCI).
#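 48-hour exposure; five concentrations; linearly interpolated endpoints. GI50 is the concentration that inhibits growth by half. TGI marks complete inhibition of growth.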
# Legend:
# Test in all cases: NCI anticancer screen, dose series, 48 h
# 786-0 renal = test system: 786-0 renal
# U251 CNS = test system: U251 CNS
# SF-268 CNS = test system: SF-268 CNS
# HCT-116 colon = test system: HCT-116 colon
# HOP-62 NSCLC = test system: HOP-62 NSCLC
# HT29 colon = test system: HT29 colon
# COLO 205 colon = test system: COLO 205 colon
# NCI-H23 lung = test system: NCI-H23 lung
# K-562 leukemia = test system: K-562 leukemia
# SNB-19 CNS = test system: SNB-19 CNS
Compound,GI50 (786-0 renal),TGI (786-0 renal),GI50 (U251 CNS),TGI (U251 CNS),GI50 (SF-268 CNS),TGI (SF-268 CNS),GI50 (HCT-116 colon),TGI (HCT-116 colon),GI50 (HOP-62 NSCLC),TGI (HOP-62 NSCLC),GI50 (HT29 colon),TGI (HT29 colon),GI50 (COLO 205 colon),TGI (COLO 205 colon),GI50 (NCI-H23 lung),TGI (NCI-H23 lung),GI50 (K-562 leukemia),TGI (K-562 leukemia),TGI (SNB-19 CNS),GI50 (SNB-19 CNS)
NCCOCCOCCNc1nc(Cc2ccccc2)nc(NCCCN2CCCC2=O)n1,> 100 µM,> 100 µM,> 100 µM,> 100 µM,> 100 µM,> 100 µM,> 100 µM,> 100 µM,> 100 µM,> 100 µM,> 100 µM,> 100 µM,> 100 µM,> 100 µM,> 100 µM,> 100 µM,> 100 µM,> 100 µM,,
C/C(=N\NS(=O)(=O)c1ccccc1)c1ccc(Cl)c(Cl)c1,,> 100 µM,,> 100 µM,,> 100 µM,,> 100 µM,,> 100 µM,,> 100 µM,,85.3 µM,,> 100 µM,,> 100 µM,,
CCCCCCCCCCC(C(=O)O)C1(C(=O)O)CCC(=O)O1 (stereo not drawn),,> 100 µM,,> 100 µM,,> 100 µM,,> 100 µM,,> 100 µM,,> 100 µM,,> 100 µM,,> 100 µM,,> 100 µM,> 100 µM,
CN(C)CCCNC(CC#N)CCC#N (stereo not drawn),,> 10 µM,,> 10 µM,,> 10 µM,,> 10 µM,,> 10 µM,,> 10 µM,,> 10 µM,,> 10 µM,,> 10 µM,> 10 µM,
O=C(COc1ccc2c(=O)cc(-c3ccccc3)oc2c1)N1CCN(c2ccccc2)CC1,,> 100 µM,,> 100 µM,,> 100 µM,,> 100 µM,,> 100 µM,,,,> 100 µM,,> 100 µM,,> 100 µM,> 100 µM,
CN(C)C(=O)OC(Cn1cncn1)c1ccc(Cl)cc1Cl (stereo not drawn),,> 100 µM,,> 100 µM,,> 100 µM,,> 100 µM,,> 100 µM,,> 100 µM,,> 100 µM,,> 100 µM,,> 100 µM,> 100 µM,
Cn1cccc1-c1cc(-c2cccs2)nc(N)c1C#N,> 100 µM,> 100 µM,> 100 µM,> 100 µM,> 100 µM,> 100 µM,> 100 µM,> 100 µM,> 100 µM,> 100 µM,> 100 µM,> 100 µM,> 100 µM,> 100 µM,> 100 µM,> 100 µM,> 100 µM,> 100 µM,> 100 µM,> 100 µM
Cc1ccc(C(=O)c2nnc(C(=O)c3ccc(C)cc3)nn2)cc1,,> 100 µM,,> 100 µM,,55.4 µM,,> 100 µM,,> 100 µM,,> 100 µM,,> 100 µM,,> 100 µM,,55.8 µM,> 100 µM,
O=C(O)/C=C\C(=O)N1C/C(=C\c2ccccc2Cl)C(=O)/C(=C/c2ccccc2Cl)C1,2.18 µM,4.06 µM,0.472 µM,1.88 µM,1.67 µM,3.54 µM,1.6 µM,3.45 µM,3.4 µM,8.26 µM,,,2.27 µM,4.33 µM,2.5 µM,6.41 µM,2.44 µM,82 µM,5.34 µM,1.98 µM
Cc1cc(N(CCC#N)CCC#N)ccc1N=Nc1cccc(C(=O)O)c1,,> 100 µM,,> 100 µM,,> 100 µM,,,,> 100 µM,,> 100 µM,,> 100 µM,,> 100 µM,,> 100 µM,,
NC1C[C@H](n2cc(/C=C/Br)c(=O)[nH]c2=O)C[C@@H]1CO (stereo partly drawn),,> 100 µM,,> 100 µM,,> 100 µM,,,,> 100 µM,,> 100 µM,,> 100 µM,,> 100 µM,,> 100 µM,> 100 µM,
Cc1ccc(N=Cc2ccc3c(c2)OCO3)cc1C,,> 100 µM,,,,> 100 µM,,> 100 µM,,,,> 100 µM,,> 100 µM,,> 100 µM,,,> 100 µM,
COc1cc(OC(C)=O)cc2c(OC(C)=O)ccc(OC(C)=O)c12,,> 100 µM,,> 100 µM,,> 100 µM,,> 100 µM,,> 100 µM,,> 100 µM,,,,> 100 µM,,> 100 µM,> 100 µM,
O=C(N/C(=C\c1ccc2c(c1)OCO2)c1nc2ccccc2[nH]1)c1ccccc1,,> 100 µM,,> 100 µM,,> 100 µM,,> 89 µM,,> 73.4 µM,,,,> 60.3 µM,,53.4 µM,,> 79.6 µM,> 100 µM,
COC(C(=O)[O][Ge]([CH3])([CH3])[CH3])c1ccccc1 (stereo not drawn),> 100 µM,> 100 µM,> 100 µM,> 100 µM,> 100 µM,> 100 µM,> 100 µM,> 100 µM,> 100 µM,> 100 µM,> 100 µM,> 100 µM,> 100 µM,> 100 µM,> 100 µM,> 100 µM,,,> 100 µM,> 100 µM
COc1ccc(-c2ccc(/C=N/n3c(COc4ccc(Cl)cc4Cl)nn(CN4CCOCC4)c3=S)o2)c([N+](=O)[O-])c1,32.5 µM,> 100 µM,,,28.6 µM,> 100 µM,16.5 µM,30.1 µM,35.9 µM,> 100 µM,42 µM,> 100 µM,30.8 µM,> 100 µM,22.5 µM,66.7 µM,18.2 µM,46.6 µM,> 100 µM,28.7 µM
CCCC(C)c1cc(Cc2cc(Cl)cc(Cl)c2O)c(O)c(Cc2cc(Cl)cc(Cl)c2O)c1 (stereo not drawn),1.64 µM,6.78 µM,0.839 µM,11.1 µM,1.01 µM,20.7 µM,0.384 µM,3.97 µM,2.7 µM,12 µM,2.83 µM,11.2 µM,1.61 µM,5.7 µM,0.789 µM,9.64 µM,0.34 µM,11.7 µM,,
CC#C[C@]1(O)CC[C@H]2[C@@H]3CCC4=CC(=O)CCC4=C3[C@@H](c3ccc4c(c3)OCO4)C[C@@]21C,35.8 µM,324 µM,108 µM,410 µM,79.1 µM,481 µM,31.2 µM,126 µM,120 µM,400 µM,225 µM,> 1000 µM,118 µM,291 µM,152 µM,> 1000 µM,,,> 1000 µM,174 µM
COc1ccc(-c2n/c(=C\c3c(O)[nH]c4ccc(OC)cc34)cc3c2=Nc2ccccc2-3)cc1,1.92 µM,3.37 µM,,,,,1.85 µM,3.33 µM,2.36 µM,4.91 µM,,,10.7 µM,56.8 µM,1.89 µM,3.97 µM,,,> 100 µM,3.88 µM
CSc1ccc(C2OC(=O)c3ccccc32)c2ccccc12 (stereo not drawn),,> 100 µM,,> 100 µM,,> 100 µM,,> 100 µM,,> 100 µM,,> 100 µM,,> 100 µM,,,,> 100 µM,> 100 µM,
CCCCCCCCCCCCCCCCN1CC2CCCCC2C1 (stereo not drawn),3.49 µM,14 µM,14.5 µM,> 100 µM,69.2 µM,> 100 µM,2.97 µM,10.8 µM,12.5 µM,25.7 µM,,,4.37 µM,17.7 µM,3.14 µM,9.94 µM,3.54 µM,11.2 µM,27.7 µM,7 µM
COc1ccc2nc(-c3cccs3)cc(C(O)CN3CCSCC3)c2c1 (stereo not drawn),,46.2 µM,,50.2 µM,,> 100 µM,,,,65.8 µM,,74 µM,,53.7 µM,,55.4 µM,,51.5 µM,> 100 µM,
COc1ccc(-c2nc3sc4c(c3c(=O)[nH]2)CCCCCC4)cc1,8.08 µM,> 33.2 µM,,,13.9 µM,> 33.2 µM,1.39 µM,> 33.2 µM,1.87 µM,> 33.2 µM,,,2.37 µM,> 33.2 µM,> 33.2 µM,> 33.2 µM,0.229 µM,> 33.2 µM,> 33.2 µM,4.74 µM
CCCCC(CC)CN=C(N)NC(N)=NCCCCCCN=C(N)NC(N)=NCC(CC)CCCC (stereo not drawn),2.16 µM,4.91 µM,,,1.63 µM,3.09 µM,,,,,,,1.82 µM,3.31 µM,,,,,,
OC(c1cc(-c2ccccc2)nc2ccc(Cl)cc12)C1CCCCN1 (stereo not drawn),1.96 µM,4.57 µM,,,3.06 µM,14 µM,1.76 µM,3.21 µM,,,2.96 µM,6.57 µM,,,1.79 µM,3.42 µM,2.54 µM,7.01 µM,4.2 µM,1.99 µM
CC1=C(C)C(=O)c2c(cc3ccccn23)C1=O,,72.9 µM,,27.2 µM,,52.8 µM,,,,,,36.6 µM,,34.5 µM,,23.3 µM,,> 100 µM,28.6 µM,
Cc1ccccc1[P+](Cc1ccccc1)(c1ccccc1)c1ccccc1,4.81 µM,> 100 µM,1.99 µM,35.2 µM,3.44 µM,> 100 µM,1.92 µM,> 100 µM,4.34 µM,> 100 µM,1.79 µM,29 µM,1.51 µM,4 µM,,,1.08 µM,> 100 µM,> 100 µM,2.8 µM
